The subject of this experiment is synthesis and secretion of a type IV collagen protein in vascular endothelial cells derived from iPS cells. The experiment in a line: Amount of type IV collagen protein released into the medium by iPS-derived vascular endothelial cells (Western blotting). It is filed as cell-based, human. To be noted: 10 nmol/L digoxin, serum-free medium, 3 days culture; FIG. 3. On the procedure: As the cells, iPS cells derived from healthy adults and patients with scleroderma established at Kumamoto University were used (Zhongzhi Wang, et al., JDS 2016 November; 84(2): 186-196.). Scleroderma is known to cause Raynaud's syndrome, which is one of peripheral vascular disorders, as a symptom of scleroderma, and therefore was employed as a vascular disorder model cell.
Differentiation induction into vascular endothelial cells was performed by culturing iPS cells derived from healthy adults and patients with scleroderma under the conditions described in Table 1.
As the obtained cells, only cells positive for VE-cadherin (CD144) and PECAM-1 (CD31), which are vascular endothelial cell markers, were sorted using flow cytometry. From the morphology of the sorted cells and the expression of the marker genes, it was confirmed that the sorted cells were vascular endothelial cells. […]
In the above (1), using the cell supernatant cultured in the serum-free medium, the amount of a type IV collagen protein released into the medium was quantified by the following method.
First, proteins released into the medium were concentrated. […] After removal of ethanol, the precipitate was dried and dissolved in an RIPA buffer, and each sample was adjusted to have a protein concentration of 1 mg/ml using a protein quantification reagent (Bradford Protein Assay, manufactured by Bio-Rad Laboratories, Inc.). […]
For orientation: A western blot detects proteins with antibodies after separation by electrophoresis.

On to `C[C@H]1O[C@@H](O[C@H]2[C@@H](O)C[C@H](O[C@H]3[C@@H](O)C[C@H](O[C@H]4CC[C@@]5(C)[C@H](CC[C@@H]6[C@@H]5C[C@@H](O)[C@]5(C)[C@@H](C7=CC(=O)OC7)CC[C@]65O)C4)O[C@@H]3C)O[C@@H]2C)C[C@H](O)[C@@H]1O` [digoxin], for which the “amount of a type IV collagen protein in the medium” value is on record as “hardly reduced”.

These data come from patent US12564576B2, “Therapeutic agent for vascular disorder” (NATIONAL UNIVERSITY CORPORATION KUMAMOTO UNIVERSITY, priority 2020, dated 2026).
